# Reference: the supplement of paper PMC11061612
# Assays:
# Assay in all cases: combination Emax (second highest fraction inhibited in the dose matrix, 72 h); higher = more inhibition; extreme values may be limits of the assay
# [1] = system: HCT-116 (Colorectal Carcinoma)
# How it was run: (§1)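 Cell lines in DMEM/F12 or RPMI with 10% FBS were plated in 1536-well plates, held 24 hours at 37°C, 5% CO2, then given two-drug dose matrices for 72 hours (DMSO typically 0.2%). Viability was read by CellTiter-Glo 2.0 luminescence and scaled as inhibition from 0 (vehicle wells) to 1 (blank wells). Combination Emax is the second-highest inhibition in the matrix; Bliss excess is observed combination effect minus expected EA + EB − EA·EB, EA and EB being single-agent effects.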
# [2] = system: H4 (Low Grade Glioma)
# How it was run: as §1
# [3] = system: D-283MED (Other Solid Carcinomas)
# How it was run: as §1
# [4] = system: HCC1143 (Breast Carcinoma)
# How it was run: as §1
# [5] = system: PA-TU-8902 (Pancreatic Carcinoma)
# How it was run: as §1
# [6] = system: CAL-39 (Other Solid Carcinomas)
# How it was run: as §1
# [7] = system: SW948 (Colorectal Carcinoma)
# How it was run: as §1
# [8] = system: SNG-M (Endometrial Carcinoma)
# How it was run: as §1
# [9] = system: U-118-MG (Low Grade Glioma)
# How it was run: as §1
# [10] = system: SNU-61 (Colorectal Carcinoma)
# How it was run: as §1
# [11] = system: ETK-1 (Biliary Tract Carcinoma)
# How it was run: as §1
# [12] = system: NCI-H1688 (Small Cell Lung Carcinoma)
# How it was run: as §1
# [13] = system: TYK-nu (Ovarian Carcinoma)
# How it was run: as §1
# [14] = system: HOP-92 (Non-Small Cell Lung Carcinoma)
# How it was run: as §1
# [15] = system: HLE (Hepatocellular Carcinoma)
# How it was run: as §1
# [16] = system: MCF7 (Breast Carcinoma)
# How it was run: as §1
# [17] = system: Saos-2 (Osteosarcoma)
# How it was run: as §1
# [18] = system: YT (Other Blood Carcinomas)
# How it was run: as §1
# [19] = system: KG-1 (Acute Myeloid Leukemia)
# How it was run: as §1
# [20] = system: D-392MG (Glioblastoma)
# How it was run: as §1
SMILES,combination Emax [1],combination Emax [2],combination Emax [3],combination Emax [4],combination Emax [5],combination Emax [6],combination Emax [7],combination Emax [8],combination Emax [9],combination Emax [10],combination Emax [11],combination Emax [12],combination Emax [13],combination Emax [14],combination Emax [15],combination Emax [16],combination Emax [17],combination Emax [18],combination Emax [19],combination Emax [20]
"CN(CCO)CC[C@H](CSc1ccccc1)Nc1ccc(S(=O)(=O)NC(=O)c2ccc(N3CCC([C@@H](O)c4ccccc4-c4ccc(Cl)cc4)CC3)cc2)cc1S(=O)(=O)C(F)(F)F [AZD4320] + Cc1cc2ncnn2cc1Nc1ncc2c(n1)n(C1CCOCC1)c(=O)n2C [AZD7648] (first compound max 1 µM, 7x7, partner max 10 µM)",0.229,0.204,0.923,0.282,0.144,0.371,0.393,0.264,0.351,0.107,0.209,0.617,0.344,0.891,0.33,0.367,0.21,0.675,0.966,0.169
"CN(CCO)CC[C@H](CSc1ccccc1)Nc1ccc(S(=O)(=O)NC(=O)c2ccc(N3CCC([C@@H](O)c4ccccc4-c4ccc(Cl)cc4)CC3)cc2)cc1S(=O)(=O)C(F)(F)F [AZD4320] + Cn1cnc2c(F)c(Nc3ccc(Br)cc3Cl)c(C(=O)NOCCO)cc21 [Selumetinib] (first compound max 1 µM, 7x7, partner max 3 µM)",0.709,0.418,0.918,0.361,0.7,0.604,0.79,0.526,0.842,0.512,0.3,0.468,0.619,0.963,0.504,0.402,0.517,0.737,0.971,0.483
"COc1nnc2ccc(N3CCC(c4ccc(OCCN5CCN(C)C(=O)[C@H]5C)cc4)CC3)nn12 [AZD5153] + C=CCn1c(=O)c2cnc(Nc3ccc(N4CCN(C)CC4)cc3)nc2n1-c1cccc(C(C)(C)O)n1 [AZD1775] (first compound max 1 µM, partner max 1 µM)",0.788,0.884,0.988,0.677,0.502,0.788,0.655,0.642,0.467,0.601,0.576,0.707,0.772,0.406,0.61,0.684,0.854,0.917,0.861,0.497
"Cc1c2c(nn1C)CSCc1cc(n(C)n1)CSc1cc(c3ccccc3c1)OCCCc1c(C(=O)O)n(C)c3c-2c(Cl)ccc13 [AZD5991] + C[C@@H](Nc1cc(F)cc(F)c1)c1cc(C(=O)N(C)C)cc2c(=O)cc(N3CCOCC3)oc12 [AZD8186] (first compound max 1 µM, 7x7, partner max 3 µM)",0.248,0.656,0.342,0.342,0.173,0.704,0.345,0.311,0.45,0.168,0.306,0.339,0.254,0.587,,0.71,0.491,1,1,0.301
"C[C@@H]1COCCN1c1cc(C2([S@](C)(=N)=O)CC2)nc(-c2ccnc3[nH]ccc23)n1 [AZD6738] + O=C(c1cc(Cc2n[nH]c(=O)c3ccccc23)ccc1F)N1CCN(C(=O)C2CC2)CC1 [Olaparib] (first compound max 10 µM, 7x7, partner max 10 µM)",0.78,0.791,1,0.701,0.195,0.526,,0.898,0.589,0.27,0.678,0.203,0.665,0.667,0.981,0.573,0.466,0.75,0.739,0.38
"Cc1cc2ncnn2cc1Nc1ncc2c(n1)n(C1CCOCC1)c(=O)n2C [AZD7648] + O=C(c1cc(Cc2n[nH]c(=O)c3ccccc23)ccc1F)N1CCN(C(=O)C2CC2)CC1 [Olaparib] (first compound max 10 µM, 7x7, partner max 10 µM)",0.234,0.585,0.639,0.148,0.112,0.174,,0.143,0.394,0.0443,0.323,0.135,0.415,0.292,0.252,0.29,0.14,0.575,0.131,0.144
